The term melting point denotes the temperature of the solid-liquid transition.

Each structure is given as a SMILES string.

The nature of data set [1]: Experimental log P, shake-flask method. As to conditions: n-octanol/phosphate buffer pH 7.4, read-out: Exp. Log P. The class given is physicochemical. The procedure:
Partition coefficients or experimental log P values of all synthesized compounds (9–23, 30 and 31) were calculated using the shake-flask method. Log P values were determined using n-octanol and phosphate buffer (pH = 7.4) at 10:1 ratio of volumes. Stock solutions (10^−3 M) of compounds were prepared in DMSO. Glass vials were used to make final solutions i.e. stock solution (250 µL) and phosphate buffer (125 µL). To record the absorbance, wavelength was selected based on λmax of the respective compound. Initial absorbance (Ai) for every compound was noted consuming the stock solution in the buffer phase. Now added n-octanol to every vial and shaken well using a mechanical shaker for 50 minutes. To get separation of both phases, glass vials were centrifuged for 35 min. at 2500 rpm. Then, the layer of octanol was separated from glass vial. The final absorbance (Af) of each compound was recorded by using the buffer layer. The values of P for compounds were determined by the following equation (Eq. 8):8 P=Ai−Af/Af×Vw/Vo

`O=Cc1ccc(-c2cn3ccnc3c(-c3ccc4c(c3)ncn4C3CCCCC3)n2)cc1` [Compound 11, 4-(8-(1-cyclohexyl-1H-benzo[d]imidazol-5-yl)imidazo[1,2-a]pyrazin-6-yl)benzaldehyde] displayed a melting point of 201 to 203 °C. For the same compound, in data set [1], the logP is 0.23.

Compound `Cc1cccc(-c2cn3ccnc3c(-c3ccc4c(c3)ncn4C3CCCCC3)n2)c1` [Compound 15, 8-(1-cyclohexyl-1H-benzo[d]imidazol-5-yl)-6-(m-tolyl)imidazo[1,2-a]pyrazine] displayed a melting point of 183 to 186 °C. Also, in data set [1], the logP turned out to be 1.54.

On to `CCc1ccc(-c2cn3ccnc3c(-c3ccc4c(c3)ncn4C3CCCCC3)n2)cc1` [Compound 16, 8-(1-cyclohexyl-1H-benzo[d]imidazol-5-yl)-6-(4-ethylphenyl)imidazo[1,2-a]pyrazine], for which the melting point was 182 to 185 °C. Further, the logP in data set [1] was found to be 1.74.

`CC(=O)c1ccc(-c2cn3ccnc3c(-c3ccc4c(c3)ncn4C3CCCCC3)n2)cc1` [Compound 17, 1-(4-(8-(1-cyclohexyl-1H-benzo[d]imidazol-5-yl)imidazo[1,2-a]pyrazin-6-yl)phenyl)ethan-1-one]: the melting point fell in the range of 200 to 203 °C. Further, the logP in data set [1] came to 1.41.

`Clc1ccc(-c2cn3ccnc3c(-c3ccc4c(c3)ncn4C3CCCCC3)n2)cc1` [Compound 18, 6-(4-chlorophenyl)-8-(1-cyclohexyl-1H-benzo[d]imidazol-5-yl)imidazo[1,2-a]pyrazine] yielded a melting point of 193 to 196 °C. The logP in data set [1] worked out at 1.34.

Compound `Brc1ccc(-c2cn3ccnc3c(-c3ccc4c(c3)ncn4C3CCCCC3)n2)cc1` [Compound 19, 6-(4-bromophenyl)-8-(1-cyclohexyl-1H-benzo[d]imidazol-5-yl)imidazo[1,2-a]pyrazine] displayed a melting point of 195 to 198 °C. In addition, in data set [1], the logP was 2.05.

Regarding `COc1ccccc1-c1cn2ccnc2c(-c2ccc3c(c2)ncn3C2CCCCC2)n1` [Compound 20, 8-(1-cyclohexyl-1H-benzo[d]imidazol-5-yl)-6-(2-methoxyphenyl)imidazo[1,2-a]pyrazine], the melting point lay in the range of 195 to 198 °C. Further, the logP in data set [1] stood at 1.88.

Compound `Fc1ccccc1-c1cn2ccnc2c(-c2ccc3c(c2)ncn3C2CCCCC2)n1` [Compound 21, 8-(1-cyclohexyl-1H-benzo[d]imidazol-5-yl)-6-(2-fluorophenyl)imidazo[1,2-a]pyrazine] showed a melting point of 190 to 193 °C. In addition, in data set [1], the logP stood at 1.77.

Compound `FC(F)(F)c1cccc(-c2cn3ccnc3c(-c3ccc4c(c3)ncn4C3CCCCC3)n2)c1` [Compound 23, 8-(1-cyclohexyl-1H-benzo[d]imidazol-5-yl)-6-(3-(trifluoromethyl)phenyl)imidazo[1,2-a]pyrazine] returned a melting point of 196 to 199 °C. Also, in data set [1], the logP is 1.67.

(Values after article PMC7162861, “Synthesis, cytotoxicity, pharmacokinetic profile, binding with DNA and BSA of new imidazo[1,2-a]pyrazine-benzo[d]imidazol-5-yl hybrids” (Scientific Reports, 2020).)
